For the first assay, the target named is T1, human TRPA1 (Homo sapiens, UniProt O75762).
T1 construct: expressed in transfected cells
T1 sequence (O75762 whole entry): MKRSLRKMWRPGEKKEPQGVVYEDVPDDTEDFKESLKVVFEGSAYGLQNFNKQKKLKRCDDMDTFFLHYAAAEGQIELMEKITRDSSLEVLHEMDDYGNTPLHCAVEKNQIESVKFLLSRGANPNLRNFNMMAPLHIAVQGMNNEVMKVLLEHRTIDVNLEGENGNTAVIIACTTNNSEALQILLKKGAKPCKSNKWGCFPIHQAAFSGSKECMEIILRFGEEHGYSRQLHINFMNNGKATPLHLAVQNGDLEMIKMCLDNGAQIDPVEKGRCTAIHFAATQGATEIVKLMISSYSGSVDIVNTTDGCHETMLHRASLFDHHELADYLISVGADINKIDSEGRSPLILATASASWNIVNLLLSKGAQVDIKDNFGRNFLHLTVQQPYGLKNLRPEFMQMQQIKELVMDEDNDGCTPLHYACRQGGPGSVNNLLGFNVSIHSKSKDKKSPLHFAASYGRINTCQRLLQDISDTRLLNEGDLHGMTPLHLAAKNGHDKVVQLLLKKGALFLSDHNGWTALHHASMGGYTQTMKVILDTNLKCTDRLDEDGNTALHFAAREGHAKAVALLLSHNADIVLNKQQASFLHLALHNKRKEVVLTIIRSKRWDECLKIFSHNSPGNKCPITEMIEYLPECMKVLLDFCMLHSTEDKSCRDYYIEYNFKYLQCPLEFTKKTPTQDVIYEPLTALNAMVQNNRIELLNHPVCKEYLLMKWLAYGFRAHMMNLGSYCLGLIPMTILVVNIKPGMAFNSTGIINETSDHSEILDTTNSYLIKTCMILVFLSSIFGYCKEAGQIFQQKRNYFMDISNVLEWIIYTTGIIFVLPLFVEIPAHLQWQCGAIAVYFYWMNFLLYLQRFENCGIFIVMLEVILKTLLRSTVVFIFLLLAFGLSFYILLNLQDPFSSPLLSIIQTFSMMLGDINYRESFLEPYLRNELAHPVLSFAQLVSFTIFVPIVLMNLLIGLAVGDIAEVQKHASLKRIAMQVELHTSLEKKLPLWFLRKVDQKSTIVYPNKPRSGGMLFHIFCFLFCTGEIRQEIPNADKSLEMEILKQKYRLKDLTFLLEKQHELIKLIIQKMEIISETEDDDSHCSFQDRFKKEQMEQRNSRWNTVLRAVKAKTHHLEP
Briefly: Cell-based functional intracellular calcium ([Ca2+]i) assay, Fluo-4/Fluo-8, FlexStation, challenge with reference TRPA1 agonist (FFA, AITC or 4-HNE).
Conditions: not given
As to the method: A stable HEK293 cell line that expresses human TRPA1 in an inducible manner was employed in this assay. […] The expression of TRPA1 was induced by including 1 μg/ml doxycycline in the culture medium. For the induced cells, ruthenium red (5 μM) was also added to minimize the constitutive TRPA1 channel activity and cells were used 14-18 hrs after induction. To measure [Ca^2+]i changes, cells were seeded in wells of 96-well plates at ˜100,000 cells/well and grown for 14-18 hrs to reach confluency. To prevent cell loss from subsequent washing, the wells were treated with 20 μg/ml polyornithine (MW>30,000, Sigma, St Louis, Mo.) for >15 min and rinsed once with Hank's balanced salt solution without Mg^2+ and Ca^2+. […] In some experiments, Fluo-8-AM was used instead of Fluo-4-AM as the calcium-sensitive fluorescent probe. Probenecid (2 mM) was included in all solutions to prevent the leakage of Fluo-4 or Fluo-8 from the cells. At the end of the incubation, cells were washed three times with ECS and placed in 80 μL of the same solution. Fluorescence changes were measured using a fluid handling integrated fluorescence plate reader, FlexStation (Molecular Devices, Sunnyvale, Calif.). Stock solutions of test compounds were initially solubilized in 100% DMSO and then serially diluted to achieve the desired final concentration. […] Drugs were diluted into ECS at 2× or 3× the desired final concentrations and delivered to the sample plate by an integrated robotic 8-channel pipettor at preprogrammed time points. […] Experiments were performed at 20-25° C. For certain experiments, 0.1% BSA was included with the cells and test compounds.
The kinetic data obtained at each test concentration of drug represents a series of fluorescent intensities as a function of time.
Using a sequential addition protocol, test compounds were initially applied to the cells loaded with Fluo-4 or Fluo-8 and fluorescence changes in each well monitored for 2.5 min. The plate was read again in a kinetic mode after a 15-30 min incubation with the test compounds after obtaining baseline values (about 30 s) and subsequent addition of challenge with a reference TRPA1 agonist. Reference TRPA1 agonists in testing each compound included at least one of flufenamic acid (FFA), allyl isothiocyanate (AITC) and 4-hydroxynonenal (4-HNE).
Antagonist activity can be expressed in terms of IC50 with respect to TRPA1 and agonist activity can be expressed in terms of EC50 with respect to TRPA1.
A general note: A change in cytosolic calcium serves as a functional read-out for many receptors and channels.
On to `O=C(c1cc(-c2ccncc2)n(-c2cc(F)c(F)c(F)c2)n1)N1CCC2(CC1)OCCO2` [Compound 142], for which the IC50 was above 25 µM.

For `CC1COC2(CCN(C(=O)c3cc(-c4ccncc4)n(-c4ccc(C(F)(F)F)c(F)c4)n3)CC2)O1` (stereo not shown) [Compound 114], the IC50 was above 25 µM.

Regarding `O=C(c1cc(-c2ccncc2)n(-c2ccc(C(F)(F)F)nc2)n1)N1CCC2(CC1)OCCO2` [Compound 166], the IC50 is above 25 µM.

With `O=C(c1cc(-c2cccnc2)n(-c2ccc(C(F)(F)F)c(F)c2)n1)N1C2CCC1CC1(C2)C(=O)NCN1c1ccc(F)cc1` (stereo not shown) [Compound 193], the IC50 was 0.001 to 5 µM.

As for `O=C(c1cc(-c2ccncc2)n(-c2ccc(C(F)(F)F)c(F)c2)n1)N1CCC2(CC1)OCCO2` [Compound 163], the IC50 was 5 to 25 µM.

In the case of `N#Cc1ccc(-n2nc(C(=O)N3C4CCC3CC3(C4)C(=O)NCN3c3ccc(F)cc3)cc2-c2cccnc2)cc1F` (stereo not shown) [Compound 330], the IC50 lay in the range of 0.001 to 5 µM.

Regarding `CCCC1COC2(CCN(C(=O)c3cc(-c4ccncc4)n(-c4cnccn4)n3)CC2)O1` (stereo not shown) [Compound 138], the IC50 is above 25 µM.

For `O=C(c1cc(-c2ccncc2)n(-c2ccc(C(F)(F)F)c(F)c2)n1)N1CCC(N2C(=O)Cc3ccccc32)CC1` [Compound 98], the IC50 was in the range of 5 to 25 µM.

Still in this assay, the particulars now being: HEK293 cells expressing human TRPA1; IC50 class after addition of reference TRPA1 agonist (FFA, AITC or 4-HNE); read-out: human TRPA1-HEK Activity.
As to `O=C(c1cc(-c2ccnnc2)n(-c2ccc(C(F)(F)F)c(F)c2)n1)N1CCC2(CC1)C(=O)NCN2c1ccc(F)cc1` [Compound 320, 8-(1-(3-fluoro-4-(trifluoromethyl)phenyl)-5-(pyridazin-4-yl)-1H-pyrazole-3-carbonyl)-1-(4-fluorophenyl)-1,3,8-triazaspiro [4.5]decan-4-one], the IC50 is 0.001 to 5 µM.

On to `O=C1OC2(CCN(C(=O)c3cc(-c4ccncc4)n(-c4ccc(C(F)(F)F)c(F)c4)n3)CC2)c2ccccc21` [Compound 102], for which the IC50 was above 25 µM.

Regarding `O=C(c1cc(-c2cccnc2)n(-c2ccc(Cl)c(C(F)(F)F)c2)n1)N1CCC2(CC1)C(=O)NCN2c1ccc(F)cc1` [Compound 296], the IC50 is 0.001 to 5 µM.

As to `CC(C)(C)c1ccc(-n2nc(C(=O)N3CCC4(CC3)C(=O)NCN4c3ccc(F)c(F)c3)cc2-c2cccnc2)cc1` [Compound 217], the IC50 fell in the range of 0.001 to 5 µM.

With `O=C(c1cc(-c2cccnc2)n(-c2ccc(F)c(C(F)(F)F)c2)n1)N1CCC(n2c(=S)[nH]c3cc(F)c(F)c(F)c32)CC1` [Compound 298], the IC50 fell in the range of 0.001 to 5 µM.

As for `O=C(c1cc(-c2ccncc2)n(-c2ccccc2)n1)N1CCC2(CC1)CC(F)(F)CO2` [Compound 16], the IC50 fell in the range of 5 to 25 µM.

For `CN1C(=O)c2ccc(NC(=O)c3cc(-c4ccncc4)n(-c4ccccc4)n3)cc2C1=O` [Compound 40], the IC50 is above 25 µM.

In the case of `N#Cc1ccc2[nH]c(=O)n(C3CCN(C(=O)c4cc(-c5cccnc5)n(-c5ccc(F)c(C(F)(F)F)c5)n4)CC3)c2c1` [Compound 240], the IC50 lay within 0.001 to 5 µM.

Take `O=C(c1cc(-c2ccncc2)n(-c2cc(F)c(F)c(F)c2)n1)N1CCC(n2c(=O)[nH]c3cc(C(F)(F)F)ccc32)CC1` [Compound 176]: the IC50 was 5 to 25 µM.

`O=C(Nc1nc(-c2ccc(F)c(C(F)(F)F)c2)cs1)c1cc(-c2ccncc2)n(-c2ccccc2)n1` [Compound 37]: the IC50 was above 25 µM.

With `O=C(c1cc(-c2cncc(F)c2)n(-c2ccc(C(F)(F)F)c(F)c2)n1)N1CCC2(CC1)C(=O)NCN2c1ccc(F)cc1` [Compound 318], the IC50 lay within 0.001 to 5 µM.

With `O=C1Nc2ccc(F)cc2C2(CCN(C(=O)c3cc(-c4cccnc4)n(-c4ccc(C(F)(F)F)c(F)c4)n3)CC2)O1` [Compound 230], the IC50 is 0.001 to 5 µM.

Take `O=C(c1cc(-c2cccnc2)n(-c2cc(F)c(F)c(F)c2)n1)N1CCC2(CC1)C(=O)NCN2c1ccc(F)c(F)c1` [Compound 254]: the IC50 fell in the range of 0.001 to 5 µM.

Consider `CC1CC(n2c(=O)[nH]c3ccccc32)CCN1C(=O)c1cc(-c2cccnc2)n(-c2ccc(C(F)(F)F)c(F)c2)n1` (stereo not shown) [Compound 261], for which the IC50 was 0.001 to 5 µM.

Consider `N#Cc1cc(C(F)(F)F)ccc1-n1nc(C(=O)N2CCC(n3c(=O)[nH]c4ccc(F)c(F)c43)CC2)cc1-c1cccnc1` [Compound 245], for which the IC50 was above 25 µM.

On to `O=C(c1cc(-c2cccnc2)n(-c2cc(F)c(F)c(F)c2)n1)N1CCC(n2c(=O)[nH]c3ncccc32)CC1` [Compound 256], for which the IC50 is above 25 µM.

For `N#Cc1cc2[nH]c(=O)n(C3CCN(C(=O)c4cc(-c5cccnc5)n(-c5cc(F)c(F)c(F)c5)n4)CC3)c2cc1F` [Compound 235], the IC50 lay in the range of 0.001 to 5 µM.

For the molecule `O=C(c1cc(-c2ccncc2)n(-c2ccccc2)n1)N1CCC2(CCCO2)CC1` [Compound 12], the IC50 was above 25 µM.

Turning to `O=C(c1cc(-c2ccncc2)n(-c2ccccc2)n1)N1CCN(c2ccc(C(F)(F)F)cn2)CC1` [Compound 32], the IC50 was above 25 µM.

On to `N#Cc1cc(C(F)(F)F)ccc1-n1nc(C(=O)N2CCC3(CC2)C(=O)NCN3c2ccc(F)cc2)cc1-c1cccnc1` [Compound 323], for which the IC50 was 0.001 to 5 µM.

`O=C(c1cc(-c2ccncc2)n(-c2ccc(C(F)(F)F)c(F)c2)n1)N1CCN2C(=O)OC[C@@H]2C1` [Compound 115]: the IC50 is above 25 µM.

For `O=C(c1cc(-c2ccncc2)n(-c2ccc(C(F)(F)F)nc2)n1)N1CCC(N2C(=O)OC[C@H]2c2ccccc2)CC1` [Compound 127], the IC50 was above 25 µM.

Consider `COc1cc(F)ccc1N1CNC(=O)C12CCN(C(=O)c1cc(-c3cccnc3)n(-c3ccc(C(F)(F)F)c(F)c3)n1)CC2` [Compound 197], for which the IC50 lay within 5 to 25 µM.

`CC1CN(C(=O)c2cc(-c3cccnc3)n(-c3cc(F)c(F)c(F)c3)n2)CC(C)C1n1c(=O)[nH]c2ccc(F)c(F)c21` (stereo not shown) [Compound 207]: the IC50 is above 25 µM.

On to `O=C(c1cc(-c2ccc(Cl)nc2)n(-c2ccc(C(F)(F)F)c(F)c2)n1)N1CCC2(CC1)C(=O)NCN2c1ccc(F)cc1` [Compound 238], for which the IC50 lay within 0.001 to 5 µM.

As to `O=C(c1cc(-c2cnccn2)n(-c2ccc(F)c(C(F)(F)F)c2)n1)N1CCC(n2c(=O)[nH]c3ccc(F)c(F)c32)CC1` [Compound 305], the IC50 fell in the range of 0.001 to 5 µM.

In the case of `O=C(c1cc(-c2cccnc2)n(-c2ccc(C(F)(F)F)cc2Cl)n1)N1CCC2(CC1)C(=O)NCN2c1ccc(F)c(F)c1` [Compound 218], the IC50 lay in the range of 0.001 to 5 µM.

As for `O=C(c1cc(-c2ccc(Cl)nc2)n(-c2ccc(C(F)(F)F)c(F)c2)n1)N1CCC(n2c(=O)[nH]c3ccc(F)c(F)c32)CC1` [Compound 239], the IC50 was 0.001 to 5 µM.

As to `Cc1cc(N2CNC(=O)C23CCN(C(=O)c2cc(-c4cccnc4)n(-c4ccc(F)c(C(F)(F)F)c4)n2)CC3)cc(C)c1F` [Compound 242], the IC50 fell in the range of 0.001 to 5 µM.

Consider `O=C(c1cc(-c2ccncc2)n(-c2ccc(C(F)(F)F)cc2)n1)N1CCC2(CC1)C(=O)NCN2c1ccc(Cl)cc1` [Compound 56], for which the IC50 is above 25 µM.

Regarding `O=C(c1cc(-c2cccnc2)n(-c2ccc(F)c(C(F)(F)F)c2)n1)N1CCC(n2c(=O)[nH]c3cc(F)c(F)c(F)c32)CC1` [Compound 297], the IC50 was in the range of 0.001 to 5 µM.

With `O=C(c1cc(-c2ccncc2)n(-c2ccc(C(F)(F)F)c(F)c2)n1)N1CCC2(CC1)OCc1ccccc12` [Compound 101], the IC50 was above 25 µM.

Regarding `O=C(c1cc(-c2cccnc2)n(-c2ccc(C(F)(F)F)c(F)c2)n1)N1CCC2(CC1)C(=O)NCN2c1ccc(Br)cc1` [Compound 184], the IC50 was above 25 µM.

Consider `Cc1cc(N2CNC(=O)C23CCN(C(=O)c2cc(-c4cccnc4)n(-c4ccc(C(F)(F)F)c(F)c4)n2)CC3)cc(C)c1F` [Compound 195], for which the IC50 was 0.001 to 5 µM.

Regarding `Cn1c(=O)n(C2CCN(C(=O)c3cc(-c4ccncc4)n(-c4ccccc4)n3)CC2)c2ccccc21` [Compound 172], the IC50 was above 25 µM.

On to `O=C(c1cc(-c2cccnc2)n(-c2cc(F)c(F)c(F)c2)n1)N1CCC2(CC1)C(=O)NCN2c1ccc(F)cc1F` [Compound 257], for which the IC50 was above 25 µM.

Consider `O=C(c1cc(-c2ccncc2)n(-c2ccc(F)c(F)c2)n1)N1CCC(n2c(=O)[nH]c3ccccc32)CC1` [Compound 150], for which the IC50 fell in the range of 5 to 25 µM.

For the molecule `O=C1OC2(CCN(C(=O)c3cc(-c4ccncc4)n(-c4ccc(F)c(F)c4)n3)CC2)c2ccccc21` [Compound 80], the IC50 is above 25 µM.

Turning to `O=C(Nc1ccc2[nH]c(=O)oc(=O)c2c1)c1cc(-c2ccncc2)n(-c2ccccc2)n1` [Compound 38], the IC50 lay within 5 to 25 µM.

Turning to `O=C(c1cc(-c2cccnc2)n(-c2ccc(C(F)(F)F)c(F)c2)n1)N1CCC(n2c(=S)[nH]c3ccc(F)c(F)c32)CC1` [Compound 182], the IC50 was in the range of 0.001 to 5 µM.

In the case of `Cc1cc(-n2nc(C(=O)N3CCC(n4c(=O)[nH]c5ccc(F)c(F)c54)CC3)cc2-c2cccnc2)cc(C(F)(F)F)c1F` [Compound 286], the IC50 fell in the range of 0.001 to 5 µM.

The values above are taken from patent publication US9951046B2, “TRPA1 modulators” (Algomedix, Inc., priority 2014, dated 2018).
